# Test results: US6436960B1, “Farnesyl transferase inhibitors having a piperidine structure and process for preparation thereof” (LG Chemical Ltd., priority 1998, dated 2002)
# Tests used:
# Ras farnesyl transferase [1] = target: T1, Ras farnesyl transferase (Rattus norvegicus, UniProt Q02293+Q04631); test: in vivo (cellular) Ras farnesyl transferase inhibitory activity, Rat2 cells transformed with H-Ras fused with polybasic lysine domain of K-Ras; assay type: cell-based; conditions: Rat2 cell line transformed with H-Ras substituted with polybasic lysine domain at C-terminus of K-Ras; concentration inhibiting 50% of farnesyl binding; read-out: K-Ras CIC50
# T1 construct: endogenous in cells; host or cells: Rat2 fibroblasts transformed with C-Harvey-Ras, or with H-Ras carrying the K-Ras C-terminal polybasic lysine domain
# Outline: (§1)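 Transformed Rat2 cells treated with compound in 1% DMSO, labelled with [35S]methionine from 4 h onward for a further 20 h. Ras immunoprecipitated with Y13-259 and resolved by SDS-PAGE and autoradiography. CIC50 is the concentration inhibiting 50% of Ras farnesylation, from farnesylated versus unfarnesylated band intensities.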
# Ras farnesyl transferase [2] = target: T2, Ras farnesyl transferase (Homo sapiens, UniProt P49354+P49356); test: in vitro inhibitory activity for Ras farnesyl transferase, K-Ras substrate; assay type: biochemical; conditions: recombinant Ras farnesyl transferase, K-Ras substrate; read-out: K-Ras IC50
# T2 construct: made in house
# Ras farnesyl transferase [3] = target: T1, Ras farnesyl transferase; test: in vivo (cellular) Ras farnesyl transferase inhibitory activity, Rat2 cells expressing C-Harvey-Ras; assay type: cell-based; conditions: Rat2 cell line expressing C-Harvey-Ras; concentration inhibiting 50% of farnesyl binding of Ras protein; read-out: H-Ras CIC50
# Outline: as §1
# Ras farnesyl transferase [4] = target: T2, Ras farnesyl transferase; test: in vitro inhibitory activity for Ras farnesyl transferase, H-Ras substrate; assay type: biochemical; conditions: recombinant Ras farnesyl transferase, H-Ras substrate, tritium-farnesylpyrophosphate, 30 minutes at 37° C.; read-out: H-Ras IC50
IC50 (Ras farnesyl transferase [1]) [nM],IC50 (Ras farnesyl transferase [2]) [nM],IC50 (Ras farnesyl transferase [3]) [nM],IC50 (Ras farnesyl transferase [4]) [nM],Structure (SMILES)
10000 to 50000,40,25,11,"CN1CCN(C(=O)c2cn(Cc3cncn3CC3CCN(C(=O)N4CCCc5ccccc54)CC3)cc2-c2cccc3ccccc23)CC1 [Compound 54, 3-(4-Methylpiperazin-1-yl)carbonyl-4-(naphthalen-1-yl)-1-{1-[1-(1,2,3,4-tetrahydroquinolin-1-ylcarbonyl)piperidin-4-yl]methyl-1H-imidazol-5-yl}methyl-1H-pyrrole]"
10000 to 50000,10,50,2.3,CN1CCN(C(=O)c2cn(Cc3cncn3CC3CCN(C(=O)N(C)Cc4ccccc4)CC3)cc2-c2cccc3ccccc23)CC1 [Compound 52]
10000 to 50000,8.5,50,3,"CN1CCN(C(=O)c2cn(Cc3cncn3CC3CCN(C(=O)N(C)C)CC3)cc2-c2cccc3ccccc23)CC1 [Compound 53, 1-{1-[1-(N,N-Dimethylcarbamoyl)piperidin-4-yl]methyl-1H-imidazol-5-yl}methyl-3-(4-methylpiperazin-1-yl)carbonyl-4-(naphthalen-1-yl)-1H-pyrrole]"

# The next lines start with the compound.
Structure (SMILES),IC50 (Ras farnesyl transferase [1]) [nM],IC50 (Ras farnesyl transferase [2]) [nM],IC50 (Ras farnesyl transferase [3]) [nM],IC50 (Ras farnesyl transferase [4]) [nM]
"COCCN(C)C(=O)c1cn(Cc2cncn2CC2CCN(C(=O)OCc3ccccc3)CC2)cc1-c1cccc2ccccc12 [Compound 5, 1-[1-(1-Benzyloxycarbonyl-piperidin-4-ylmethyl)-1H-imidazol-5-ylmethyl]-3-[N-(2-methoxyethyl)-N-methyl]carbamoyl-4-(naphthalen-1-yl)-1H-pyrrole]",1000 to 10000,10 to 100,10 to 100,2.5
COCCN(C)C(=O)c1cn(Cc2cncn2CC2CCN(C(=O)c3csc(C(C)C)n3)CC2)cc1-c1cccc2ccccc12 [Compound 29],10000 to 50000,10 to 100,10 to 100,2.5
COCCN(C)C(=O)c1cn(Cc2cncn2CC2CCN(C(=O)OC/C=C/c3ccccc3)CC2)cc1-c1cccc2ccccc12 [Compound 25],1000 to 10000,27,< 100,6
"COCCN(C)C(=O)c1cn(Cc2cncn2CC2CCN(C(=O)NC3CCCCC3)CC2)cc1-c1cccc2ccccc12 [Compound 11, 1-{1-[1-(N-Cyclohexylcarbamoyl)-piperidin-4-ylmethyl]-1H-imidazol-5-ylmethyl}-3-[N-(2-methoxyethyl)-N-methyl]carbamoyl-4-(naphthalen-1-yl)-1H-pyrrole]",1000 to 50000,10 to 1000,10 to 100,1 to 10
